Measurements as given in patent publication US11572590B2, “Methods for evaluating tumor cell spheroids using 3D microfluidic cell culture device” (Dana-Farber Cancer Institute, Inc., priority 2017, dated 2023).
Where two headings read alike, the source gives them in different places.

What was measured:
Experiment in all cases: SelectScreen Kinase Profiling, single point inhibition and IC50 for off-target kinases
Assay type in all cases: biochemical
off-target kinases [1] = biological target: T1, off-target kinases (Homo sapiens, UniProt Q15835); conditions: GRK1, LanthaScreen Binding
T1 sequence (Q15835 1-563): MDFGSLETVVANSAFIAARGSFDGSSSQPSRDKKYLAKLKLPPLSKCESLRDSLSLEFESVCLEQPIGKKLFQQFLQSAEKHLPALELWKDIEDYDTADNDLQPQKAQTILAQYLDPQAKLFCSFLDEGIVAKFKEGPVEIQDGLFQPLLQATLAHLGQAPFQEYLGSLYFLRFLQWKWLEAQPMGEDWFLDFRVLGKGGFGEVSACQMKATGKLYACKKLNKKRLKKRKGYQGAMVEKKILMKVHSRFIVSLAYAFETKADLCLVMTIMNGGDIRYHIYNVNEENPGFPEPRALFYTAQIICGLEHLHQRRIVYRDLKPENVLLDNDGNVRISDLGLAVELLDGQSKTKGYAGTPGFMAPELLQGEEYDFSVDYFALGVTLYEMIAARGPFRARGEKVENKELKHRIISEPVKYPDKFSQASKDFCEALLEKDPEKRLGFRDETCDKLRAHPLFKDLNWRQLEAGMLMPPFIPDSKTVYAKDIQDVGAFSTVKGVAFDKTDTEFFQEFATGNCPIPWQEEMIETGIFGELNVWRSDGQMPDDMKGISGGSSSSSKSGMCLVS

off-target kinases [2] = biological target: off-target kinases (Homo sapiens, UniProt P51617); conditions: IRAK1, ATP Km app, Adapta
off-target kinases (Homo sapiens, UniProt P51617), sequence (P51617 whole entry): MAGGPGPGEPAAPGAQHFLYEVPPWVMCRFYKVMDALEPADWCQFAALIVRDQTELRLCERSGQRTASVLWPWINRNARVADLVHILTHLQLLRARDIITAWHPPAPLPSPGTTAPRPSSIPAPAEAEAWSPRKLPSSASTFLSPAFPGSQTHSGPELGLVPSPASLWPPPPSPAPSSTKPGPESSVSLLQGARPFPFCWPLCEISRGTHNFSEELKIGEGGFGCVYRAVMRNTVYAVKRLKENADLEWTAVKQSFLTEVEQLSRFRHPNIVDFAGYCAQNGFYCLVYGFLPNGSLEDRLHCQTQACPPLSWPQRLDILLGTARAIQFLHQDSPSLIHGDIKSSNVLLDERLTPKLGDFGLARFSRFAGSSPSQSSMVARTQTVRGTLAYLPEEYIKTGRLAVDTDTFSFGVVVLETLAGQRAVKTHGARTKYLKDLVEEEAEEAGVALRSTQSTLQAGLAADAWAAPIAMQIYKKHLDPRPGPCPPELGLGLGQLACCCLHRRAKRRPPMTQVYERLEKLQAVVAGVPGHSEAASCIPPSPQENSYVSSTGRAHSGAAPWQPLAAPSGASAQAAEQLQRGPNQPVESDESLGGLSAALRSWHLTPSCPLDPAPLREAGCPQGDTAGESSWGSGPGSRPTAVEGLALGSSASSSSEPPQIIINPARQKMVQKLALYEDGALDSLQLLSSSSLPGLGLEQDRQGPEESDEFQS

off-target kinases [3] = biological target: T2, off-target kinases (Homo sapiens, UniProt P29322); conditions: EPHA8, ZLYTE, ATP Km app
T2 sequence (P29322 28-1005): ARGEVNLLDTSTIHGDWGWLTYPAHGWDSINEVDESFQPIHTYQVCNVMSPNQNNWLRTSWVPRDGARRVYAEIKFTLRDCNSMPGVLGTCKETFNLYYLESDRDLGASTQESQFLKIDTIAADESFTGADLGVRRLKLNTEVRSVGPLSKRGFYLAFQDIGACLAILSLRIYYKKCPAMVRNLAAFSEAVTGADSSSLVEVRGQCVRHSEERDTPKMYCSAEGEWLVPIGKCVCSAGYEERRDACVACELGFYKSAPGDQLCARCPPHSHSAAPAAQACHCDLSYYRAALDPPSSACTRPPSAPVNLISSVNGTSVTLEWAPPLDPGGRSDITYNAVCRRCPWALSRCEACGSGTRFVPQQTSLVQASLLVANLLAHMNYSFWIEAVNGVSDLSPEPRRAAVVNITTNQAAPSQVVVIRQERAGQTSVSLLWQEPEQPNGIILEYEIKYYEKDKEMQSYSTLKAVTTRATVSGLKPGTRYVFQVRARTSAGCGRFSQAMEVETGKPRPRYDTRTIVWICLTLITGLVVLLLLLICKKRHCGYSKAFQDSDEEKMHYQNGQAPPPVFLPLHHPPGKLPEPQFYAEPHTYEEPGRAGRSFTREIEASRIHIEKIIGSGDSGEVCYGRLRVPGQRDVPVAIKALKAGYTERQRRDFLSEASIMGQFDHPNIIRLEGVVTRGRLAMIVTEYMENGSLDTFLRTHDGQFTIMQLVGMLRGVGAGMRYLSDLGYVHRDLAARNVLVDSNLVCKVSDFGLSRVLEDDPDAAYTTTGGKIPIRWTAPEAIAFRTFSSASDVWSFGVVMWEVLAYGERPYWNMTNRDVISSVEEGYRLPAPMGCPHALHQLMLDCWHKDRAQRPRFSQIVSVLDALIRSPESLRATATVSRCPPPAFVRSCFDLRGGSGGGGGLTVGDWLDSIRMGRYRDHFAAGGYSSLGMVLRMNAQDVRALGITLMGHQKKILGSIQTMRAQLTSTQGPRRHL

off-target kinases [4] = biological target: off-target kinases (Homo sapiens, UniProt P10721, T670I/V559D); conditions: KIT V559D T670I, LanthaScreen Binding
off-target kinases (Homo sapiens, UniProt P10721, T670I/V559D), sequence (P10721 26-976 V559D/T670I): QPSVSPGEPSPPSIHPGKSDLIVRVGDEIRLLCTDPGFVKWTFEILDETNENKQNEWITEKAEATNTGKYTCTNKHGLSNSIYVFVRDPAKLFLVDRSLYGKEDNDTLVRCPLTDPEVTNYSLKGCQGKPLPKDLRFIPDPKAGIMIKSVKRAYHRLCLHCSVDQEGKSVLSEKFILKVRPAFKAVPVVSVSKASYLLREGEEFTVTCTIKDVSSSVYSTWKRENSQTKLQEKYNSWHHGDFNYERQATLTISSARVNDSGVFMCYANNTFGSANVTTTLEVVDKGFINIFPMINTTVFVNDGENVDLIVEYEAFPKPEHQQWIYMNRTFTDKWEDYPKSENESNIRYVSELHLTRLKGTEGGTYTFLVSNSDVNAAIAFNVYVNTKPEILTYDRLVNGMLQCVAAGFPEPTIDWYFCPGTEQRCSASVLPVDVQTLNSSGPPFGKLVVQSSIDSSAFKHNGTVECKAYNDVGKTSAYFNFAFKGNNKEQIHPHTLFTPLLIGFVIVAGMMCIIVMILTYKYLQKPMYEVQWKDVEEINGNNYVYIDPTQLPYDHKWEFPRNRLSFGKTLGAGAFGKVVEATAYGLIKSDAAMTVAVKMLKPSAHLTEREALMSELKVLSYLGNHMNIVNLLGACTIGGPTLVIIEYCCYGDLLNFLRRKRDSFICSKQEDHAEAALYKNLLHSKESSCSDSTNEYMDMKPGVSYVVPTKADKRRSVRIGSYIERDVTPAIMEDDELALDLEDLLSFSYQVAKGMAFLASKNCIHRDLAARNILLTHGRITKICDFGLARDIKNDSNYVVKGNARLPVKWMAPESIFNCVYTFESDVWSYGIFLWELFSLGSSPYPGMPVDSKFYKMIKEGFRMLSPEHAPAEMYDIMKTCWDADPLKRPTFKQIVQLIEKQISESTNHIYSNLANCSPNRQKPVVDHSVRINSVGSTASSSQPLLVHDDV

off-target kinases [5] = biological target: off-target kinases (Homo sapiens, UniProt P09769); conditions: FGR, ATP Km app, ZLYTE
off-target kinases (Homo sapiens, UniProt P09769), sequence (P09769 whole entry): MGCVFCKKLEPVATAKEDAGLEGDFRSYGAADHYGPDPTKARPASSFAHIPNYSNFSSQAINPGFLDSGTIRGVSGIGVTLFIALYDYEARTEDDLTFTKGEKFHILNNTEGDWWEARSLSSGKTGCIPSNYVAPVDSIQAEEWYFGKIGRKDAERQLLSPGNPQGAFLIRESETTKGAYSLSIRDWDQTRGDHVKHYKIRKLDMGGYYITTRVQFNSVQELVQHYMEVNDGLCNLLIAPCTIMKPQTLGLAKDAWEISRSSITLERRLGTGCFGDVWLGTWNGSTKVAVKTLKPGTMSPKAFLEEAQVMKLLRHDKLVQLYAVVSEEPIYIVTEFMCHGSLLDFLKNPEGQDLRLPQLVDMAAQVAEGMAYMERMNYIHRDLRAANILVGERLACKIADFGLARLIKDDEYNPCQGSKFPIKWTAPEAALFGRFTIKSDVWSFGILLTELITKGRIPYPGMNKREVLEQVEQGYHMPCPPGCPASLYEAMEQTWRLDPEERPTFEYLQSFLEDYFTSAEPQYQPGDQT

For `N#Cc1cc(-c2ncnc(Nc3ccc(N4CCN(C5COC5)CC4)cc3)n2)ccc1OC1CCOCC1` [Compound 1, 5-(4-((4-(4-(oxetan-3-yl)piperazin-1-yl)phenyl)amino)-1,3,5-triazin-2-yl)-2-((tetrahydro-2H-pyran-4-yl)oxy)benzonitrile], the inhibition (off-target kinases [1]; read-out: % Inhibition 1) was 7%, the inhibition (off-target kinases [1]; read-out: % Inhibition 2) was 2% and the inhibition (off-target kinases [1]; read-out: % Inhibition Avg) was 5%. The inhibition (off-target kinases [2]; read-out: % Inhibition 1) was 94%, the inhibition (off-target kinases [2]; read-out: % Inhibition 2) was 96% and the inhibition (off-target kinases [2]; read-out: % Inhibition Avg) was 95%. For the same molecule, the inhibition (off-target kinases [3]; read-out: % Inhibition 1) was 11%, the inhibition (off-target kinases [3]; read-out: % Inhibition 2) was 7% and the inhibition (off-target kinases [3]; read-out: % Inhibition Avg) was 9%. The inhibition (off-target kinases [4]; read-out: % Inhibition 1) was 46%, the inhibition (off-target kinases [4]; read-out: % Inhibition 2) was 49% and the inhibition (off-target kinases [4]; read-out: % Inhibition Avg) was 47%. For the same molecule, the inhibition (off-target kinases [5]; read-out: % Inhibition 1) was 53%, the inhibition (off-target kinases [5]; read-out: % Inhibition 2) was 53% and the inhibition (off-target kinases [5]; read-out: % Inhibition Avg) was 53%.
